Here are results for eight compounds from PubChem BioAssay (NCI).

What all share (assay): DTP human tumour cell line panel, 48 h
For assay [1], the system named is A498 renal.
Assay [2] deals with OVCAR-3 ovarian.
The subject of assay [3] is NCI/ADR-RES ovarian.
Assay [4] relates to UO-31 renal.
For assay [5], the system named is ACHN renal.
For assay [6], the system named is TK-10 renal.
Assay [7] relates to SNB-75 CNS.
The test system of assay [8] is SK-MEL-2 melanoma.
The subject of assay [9] is UACC-257 melanoma.
Assay [10] has as its system HOP-92 NSCLC.

SMILES strings stand for the structures. Where “and” joins values, the source holds several entries; their conditions need not be identical. Equal values may be shown once.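 96-well plates; 48 h exposure; 5 concentrations. Endpoints by linear interpolation between flanking doses. Not reached: highest tested concentration assigned. GI50 is the concentration that inhibits growth by half. TGI: total growth inhibition.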

The term GI50 denotes the concentration that inhibits growth by half. The term TGI denotes the concentration at which net growth stops. On to `Cc1ncc(C(=O)Nc2ccc(CN3CCN(C)CC3)c(C(F)(F)F)c2)cc1C#Cc1cnc(N)c2cnccc12`, for which the GI50 in assay [1] was 0.0511 µM; in assay [2], 0.181 µM; in [3], 6.68 µM; in [4] it was 0.289 µM; in assay [5], 0.133 µM; in assay [6], 0.132 µM. Also, the GI50 in assay [7] is 0.0899 µM; in assay [8], 0.0243 µM; in assay [9] it was 0.0689 µM; in assay [10], 0.0299 µM. Also, the total growth inhibition concentration (TGI) in assay [1] is 0.3 µM; in assay [2], 5.98 µM; in [3], 23.9 µM; in [4], 1.15 µM; in [5] it was 1.03 µM; in assay [6], 1.93 µM. Further, the concentration for total growth inhibition (TGI) was 0.616 µM in assay [7], 0.0941 µM in [8], 1.29 µM in assay [9] and 0.258 µM in assay [10].
`C[C@H](N)C(=O)N[C@@H]1[C@H]2C(=C(O)C[C@@H](O)[C@@H]2O)C(=O)O[C@]1(C)C(Cl)Cl`: the TGI in assay [1] was 2.27 µM and 1.56 µM; in assay [2] it was 9.36 µM and 1.94 µM; in assay [3], 29.1 µM; in assay [4], 5.47 µM and 5.41 µM; in assay [5] it was 5.21 µM and 1.58 µM; in assay [6], 6.92 µM and 2.06 µM. In addition, the TGI was 3.85 µM and 1.07 µM in assay [7]; 1.49 µM and 0.958 µM in [8]; 1.16 µM and 1.94 µM in [9]; 1.19 µM and 0.736 µM in [10]. The GI50 was 0.454 µM in assay [2]; 0.763 µM in [4]; 0.309 µM in [5]; 0.685 µM in assay [6]; 0.226 µM in assay [7]; 0.308 µM in assay [8]. Moreover, the GI50 in assay [9] was 0.096 µM; in assay [10], 0.223 µM.
Take `CC(C)CCSC1=CC(=O)c2ccccc2C1=O`: the GI50 in [1] was 19.8 µM; in assay [2], 1.17 µM; in assay [3], 8.75 µM; in assay [4], 0.627 µM; in assay [5] it was 1.84 µM; in assay [6] it was 12.4 µM. The GI50 in [7] is 0.811 µM; in [8], 6.73 µM; in assay [9], 13.3 µM; in assay [10], 1.2 µM. Also, the TGI was found to be 63.9 µM in [1]; 2.39 µM in assay [2]; 40.1 µM in assay [3]; 4.18 µM in assay [4]; 5.69 µM in [5]; 24.8 µM in assay [6]. Also, the TGI in assay [7] is > 46.9 µM; in [8] it was 17.3 µM; in assay [9], 26.7 µM; in [10], 2.62 µM.
As for `COc1ccccc1-c1cc(/C=C2\C(=O)Nc3ncc(Br)cc32)cc(Br)c1O`, the GI50 was 3.73 µM in [1]; 9.51 µM in assay [2]; 14.5 µM in assay [3]; 4.49 µM in assay [4]; 11.7 µM in assay [5]; 9.95 µM in [6]. The GI50 in assay [7] is 6.03 µM; in assay [8], 8.89 µM; in assay [9] it was 16.4 µM; in assay [10], 1.21 µM. Further, the TGI is 19.5 µM in [1]; > 25 µM in assay [2]; > 25 µM in assay [3]; > 25 µM in assay [4]; > 25 µM in assay [5]; > 25 µM in [6]. For the same compound, the TGI in assay [7], in assay [8], in assay [9] and in assay [10] was > 25 µM each time.
Take `CC(C)CC1C(=O)N2CCC[C@H]2C2(O)O[C@](NC(=O)C3C=C4c5cccc6[nH]c(Br)c(c56)C[C@H]4N(C)C3)(C(C)C)C(=O)N12` (stereo partly drawn): the GI50 in [1] was 3.21 µM; in assay [2], 6.7 µM; in [3] it was 8.29 µM; in assay [4], 2.02 µM; in assay [5], 8.9 µM; in [6] it was 5.06 µM. Besides, the GI50 in assay [7] is 5.55 µM; in [8] it was 22.6 µM; in assay [9], 16.7 µM; in [10], 1.91 µM. Moreover, the TGI in assay [1], in assay [2], in [3], in assay [4], in assay [5] and in assay [6] was > 100 µM each time. Also, the TGI in assay [7], in [8], in assay [9] and in assay [10] was > 100 µM each time.
For the compound `NCCCCCCCCn1c2c(c3ccccc3c1=O)C(=O)c1ccccc1-2`, the GI50 in assay [1] was 3.48 µM; in [2] it was 3.5 µM; in [3], 4.29 µM; in [4], 3.36 µM; in assay [5] it was 4.07 µM; in assay [6] it was 1.93 µM. For the same compound, the GI50 in assay [7] was 7.65 µM; in assay [8] it was 2.83 µM; in assay [9], 4.97 µM; in assay [10], 2.4 µM. The TGI in assay [1] turned out to be 15.8 µM; in assay [2], 11.6 µM; in assay [3], 85.1 µM; in assay [4], 12.3 µM; in [5], 14 µM; in assay [6], 3.88 µM. Further, the total growth inhibition concentration (TGI) was determined as 26.8 µM in assay [7], 6.98 µM in assay [8], 20.6 µM in [9] and 8.47 µM in assay [10].
Turning to `Cc1nc2ccccn2c1NC(=O)NNC(=S)Nc1ccc(Br)cc1`, the GI50 is 32.8 µM in assay [1]; 38.6 µM in [2]; 24.5 µM in [3]; 82.5 µM in [4]; 37.9 µM in [5]; 74.1 µM in assay [6]. For the same compound, the GI50 in assay [7] was 26.1 µM; in assay [8], 77.8 µM; in [9], 37.8 µM; in assay [10], 49.4 µM. The TGI in assay [1] was 88.1 µM; in [2] it was 94.8 µM; in [3], 58 µM; in [4], > 100 µM; in [5] it was > 100 µM; in assay [6], > 100 µM. In addition, the total growth inhibition concentration (TGI) was 67.5 µM in assay [7], > 100 µM in assay [8], > 100 µM in [9] and > 100 µM in [10].
On to `CC1=CC(=O)CC(C)(C)C1(O)/C=C/C(C)=C/C(=O)O` (stereo not drawn), for which the TGI in [1], in assay [2], in assay [3], in assay [4], in assay [5] and in assay [6] was > 100 µM throughout. In addition, the total growth inhibition concentration (TGI) in assay [7], in assay [8], in [9] and in assay [10] was > 100 µM throughout.
